These results are taken from PMC10644346, “Shotgun Kinetic Target-Guided Synthesis Approach Enables the Discovery of Small-Molecule Inhibitors against Pathogenic Free-Living Amoeba Glucokinases” (ACS Infectious Diseases, 2023).

Test [1] concerns the target T1, NfGlck (Naegleria fowleri glucokinase) (Naegleria fowleri, UniProt A0A384E136). Also on record: method as in PMID 35604214. The settings on record: cited from earlier work; for selectivity over the human variant (HsGlck): NfGlck vs HsGlck; for NfGlck IC50: previously identified NfGlck inhibitors.
For test [2], the target named is T2, BmGlck (Balamuthia mandrillaris glucokinase) (Balamuthia mandrillaris, UniProt Z9NIO0WF95). Also on record: method as in PMID 35604214. The settings on record: cited from earlier work.
Test [3] concerns the target T3, AcGlck (Acanthamoeba castellanii glucokinase) (Acanthamoeba castellanii, UniProt L8GT25). Also on record: method as in PMID 35604214. The settings on record: cited from earlier work.
Test [4] concerns the target T1, NfGlck (Naegleria fowleri glucokinase). Put plainly: Glucokinase assay (G6PDH-coupled reaction, absorbance at 340 nm), NfGlck. It is filed as biochemical. The settings on record: for IC50: 10 nM enzyme, 15 min preincubation, pH 7.4, triplicate. The procedure: (§1) The open reading frames of NfGlck, AcGlck, and BmGlck were cloned into pQE30, transformed into M15(pREP) Escherichia coli (Qiagen, Valencia, CA), and expressed as previously described.[48],[54] Briefly, E. coli M15(pREP4) harboring pQE30 constructs were inoculated and grown to an optical density at 600 nm (OD600) of ∼0.6 prior to induction with 500 μM isopropyl β-D-1-thiogalactopyranoside (IPTG). Protein from bacterial lysate was purified by nickel column chromatography (HisTrap FF; GE Healthcare Life Sciences, Pittsburgh, PA) followed by ion-exchange chromatography (HiTrap Q XL; GE Healthcare Life Sciences, Pittsburgh, PA). Protein was typically stored in 25 mM HEPES–Na (pH 7.4), 150 mM NaCl, and 50% glycerol after protein concentrations were determined by using a Bradford assay with bovine serum albumin (BSA) as a standard.
(§2) Enzyme activities were measured in triplicate using a coupled reaction described previously.[54] In a clear 96-well plate, enzyme (HsGlck, NfGlck, AcGlck, or BmGlck, all at 10 nM) was incubated with potential inhibitors (in DMSO) in their optimized assay buffer for 15 min at room temperature. For HsGlck and NfGlck, the assay buffer contained 50 mM TEA and 3.3 mM MgCl2, pH 7.4. For AcGlck and BmGlck, the assay buffer contained 50 mM Tris-HCl and 3.3 mM MgCl2, pH 8. Substrate buffer (425 μM glucose, 2.5 mM ATP, 1 U/mL G6PDH, and 0.75 mM NADP^+) was added to each well to start the reaction for a total reaction volume of 200 μL. Immediately after addition, absorbance was measured at 340 nm at 15 s intervals for 2 min by using a BioTek Synergy H1 microplate reader (BioTek, Winooski, VT). Dose–response analysis and IC50 values were performed by using Prism 9.0 (GraphPad software, San Diego, CA). As a control, enzyme activity in inhibitor solvent (DMSO) was included in every assay. To solve the mode of inhibition, NfGlck activity was measured with increasing substrate concentrations (0–1.25 mM) of glucose in the presence or absence of different inhibitor concentrations (0–10 μM) in technical triplicates. Data were then analyzed, and statistical analyses were performed by extra sum-of-squares F test to compare two models of inhibition. […] All statistical analyses were performed using Prism 9 software.

Test [5] has as its target T2, BmGlck (Balamuthia mandrillaris glucokinase). The experiment in a line: Glucokinase assay (G6PDH-coupled reaction, absorbance at 340 nm), BmGlck. It counts as biochemical. Conditions: 10 nM enzyme, 15 min preincubation, pH 8, triplicate. The protocol: as §1, §2
In test [6] the target is T3, AcGlck (Acanthamoeba castellanii glucokinase). The experiment in a line: Glucokinase assay (G6PDH-coupled reaction, absorbance at 340 nm), AcGlck. It is filed as biochemical. Conditions: 10 nM enzyme, 15 min preincubation, pH 8, triplicate. The protocol: as §1, §2
Test [7] has as its target T4, HsGlck (human glucokinase) (Homo sapiens, UniProt P35557).
T4 sequence (P35557 1-465): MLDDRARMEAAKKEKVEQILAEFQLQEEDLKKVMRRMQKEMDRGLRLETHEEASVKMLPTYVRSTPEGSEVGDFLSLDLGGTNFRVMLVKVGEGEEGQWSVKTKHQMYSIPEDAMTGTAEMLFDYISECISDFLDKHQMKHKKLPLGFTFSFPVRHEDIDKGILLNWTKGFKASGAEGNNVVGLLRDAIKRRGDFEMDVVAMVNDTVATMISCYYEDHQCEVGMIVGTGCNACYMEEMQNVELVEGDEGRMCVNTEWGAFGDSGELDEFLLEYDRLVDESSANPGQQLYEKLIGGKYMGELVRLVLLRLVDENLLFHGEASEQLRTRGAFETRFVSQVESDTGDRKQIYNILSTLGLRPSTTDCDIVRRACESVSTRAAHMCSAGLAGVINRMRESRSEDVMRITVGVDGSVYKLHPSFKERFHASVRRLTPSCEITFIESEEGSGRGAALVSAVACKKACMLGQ
Put plainly: Glucokinase assay (G6PDH-coupled reaction, absorbance at 340 nm), HsGlck. The settings on record: 10 nM enzyme, 15 min preincubation, pH 7.4, triplicate. It counts as biochemical. The protocol: as §2

A further test concerns N. fowleri. Also on record: method as in PMID 30783001. The settings on record: media containing the glycolytic inhibitor; cited from earlier work.

T1 sequence (A0A384E136 entry or part of it): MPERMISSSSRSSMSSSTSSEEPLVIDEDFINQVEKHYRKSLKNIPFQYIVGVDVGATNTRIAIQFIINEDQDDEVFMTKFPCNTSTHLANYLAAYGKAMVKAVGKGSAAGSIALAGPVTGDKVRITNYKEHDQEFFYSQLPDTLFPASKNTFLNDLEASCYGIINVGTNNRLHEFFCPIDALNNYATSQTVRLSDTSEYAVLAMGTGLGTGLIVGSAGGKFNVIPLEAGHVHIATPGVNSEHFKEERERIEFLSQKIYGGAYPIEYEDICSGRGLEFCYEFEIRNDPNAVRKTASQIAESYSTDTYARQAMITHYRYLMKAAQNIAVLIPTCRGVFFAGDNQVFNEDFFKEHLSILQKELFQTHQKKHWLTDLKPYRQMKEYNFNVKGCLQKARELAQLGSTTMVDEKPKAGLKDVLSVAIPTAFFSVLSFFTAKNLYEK
T3 sequence (L8GT25 entry or part of it): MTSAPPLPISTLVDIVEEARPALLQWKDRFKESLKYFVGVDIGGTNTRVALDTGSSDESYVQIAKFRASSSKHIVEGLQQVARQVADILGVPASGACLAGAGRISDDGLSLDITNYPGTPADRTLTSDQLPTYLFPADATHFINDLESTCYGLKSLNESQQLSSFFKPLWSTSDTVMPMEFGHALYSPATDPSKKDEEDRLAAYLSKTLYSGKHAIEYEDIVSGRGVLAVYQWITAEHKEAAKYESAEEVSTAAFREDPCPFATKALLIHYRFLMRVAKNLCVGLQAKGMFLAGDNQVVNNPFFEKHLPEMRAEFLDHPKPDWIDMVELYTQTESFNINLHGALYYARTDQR

Take `N=C(N)Nc1ccc(-c2ccc(-c3ccc(N=C(N)N)c(Cl)c3)o2)cc1Cl` [MMV688271]: in test [1], the “selectivity over the human variant (HsGlck)” value is on record as “lacked significant selectivity” and the “NfGlck IC50” value is “submicromolar”. Besides, the “activity against BmGlck” value in test [2] is “not active”. Also, the “activity against AcGlck” value in test [3] was “not active”.
Turning to `Cn1cc(C(=O)NS(=O)(=O)CCN(CSCc2ccccc2)Cc2ccc3c(c2)OCO3)c2cc(-c3ccc(S(C)(=O)=O)cc3)ccc21` [SZ28TA26], the IC50 was greater than 10 µM in test [4], 4.77 ± 1 µM in test [5], 4.35 ± 0.31 µM in test [6] and greater than 10 µM in test [7].
As to `CCOc1ccc(-c2ccc3c(c2)c(C(=O)NS(=O)(=O)c2ccc(-c4ccc(Oc5ccccc5)cc4)cc2)cn3C)cc1F` [SZ35TA23], the IC50 in test [4] was greater than 10 µM; in test [5], greater than 10 µM; in test [6], 6.9 µM; in test [7], greater than 10 µM.
As to `COc1ccccc1-c1ccc(C(=O)NS(=O)(=O)c2ccc(-c3cc4ccccc4s3)cc2)cc1` [SZ37TA21], the 50% inhibitory concentration (IC50) in test [4] is greater than 10 µM; in test [5] it was 4.83 ± 0.76 µM; in test [6] it was 5.1 ± 0.5 µM; in test [7], greater than 10 µM.
For `Cn1cc(C(=O)c2cccs2)c2cc(C(=O)NS(=O)(=O)c3ccc(-c4ccc5c(c4)OCCO5)cc3)ccc21` [SZ33TA45], the 50% inhibitory concentration (IC50) in test [4] was 10.9 ± 2 µM; in test [5], greater than 10 µM; in test [6], greater than 10 µM; in test [7], 10.6 ± 0.45 µM.
Take `COc1cc(OC)cc(C(=O)NS(=O)(=O)c2ccc(CN3CCN(c4ccccc4)CC3)cc2)c1` [SZ1TA5]: the half-inhibitory concentration (IC50) in test [4] was greater than 10 µM; in test [5], greater than 10 µM; in test [6], 11.6 ± 9.2 µM; in test [7], greater than 10 µM.
Turning to `O=C(NS(=O)(=O)c1ccc(-c2ccc(Oc3ccccc3)cc2)cc1)c1ccc2oc(-c3ccccc3)cc2c1` [SZ35TA41], the concentration for half-maximal inhibition (IC50) in test [4] was greater than 10 µM; in test [5], 1.19 ± 0.29 µM; in test [6], 1.6 ± 0.1 µM; in test [7], greater than 10 µM.
Take `O=C(O)C(=O)CBr` [3-bromopyruvate]: the “effect on N. fowleri cellular growth” value with N. fowleri is “decrease in cellular growth”.
As to `O=C(NS(=O)(=O)c1ccc(-c2ccc(Oc3ccccc3)cc2)cc1)c1ccc2c(ccn2Cc2ccc(C(F)(F)F)cc2C(F)(F)F)c1` [SZ35TA30], the half-maximal inhibitory concentration (IC50) in test [4] was determined as 1.9 ± 1.1 µM; in test [5] it was 0.33 ± 0.05 µM; in test [6], 0.21 ± 0.04 µM; in test [7], 8.5 ± 0.37 µM. In addition, the “selectivity for NfGlck over HsGlck” value in test [4] (NfGlck vs HsGlck IC50) is “slight selectivity”.
Consider `O=C(NS(=O)(=O)c1ccc(-c2ccc3c(c2)OCCO3)cc1)c1ccc2c(ccn2Cc2ccc(C(F)(F)F)cc2C(F)(F)F)c1` [SZ33TA30], for which the concentration for half-maximal inhibition (IC50) in test [4] was greater than 10 µM; in test [5], 1.48 ± 0.13 µM; in test [6], 4.4 ± 0.4 µM; in test [7], greater than 10 µM.
On to `O=C(NS(=O)(=O)CCN(CSCc1ccccc1)Cc1ccc2c(c1)OCO2)c1ccc2c(ccn2Cc2ccc(C(F)(F)F)cc2C(F)(F)F)c1` [SZ28TA30], for which the IC50 was greater than 10 µM in test [4], 1.68 ± 0.05 µM in test [5], greater than 10 µM in test [6] and greater than 10 µM in test [7].
With `Cn1cc(C(=O)c2cccs2)c2cc(C(=O)NS(=O)(=O)c3ccc(-c4ccc(Oc5ccccc5)cc4)cc3)ccc21` [SZ35TA45], the IC50 in test [4] was greater than 10 µM; in test [5], 1.92 ± 0.13 µM; in test [6], 3.3 ± 1.3 µM; in test [7], greater than 10 µM.
As for `O=c1c2ccccc2[se]n1-c1ccccc1` [SID856002, ebselen], in test [1], the “selectivity over the human variant (HsGlck)” value was “lacked significant selectivity” and the “NfGlck IC50” value is recorded as “submicromolar”.
For `O=C(NS(=O)(=O)c1ccc(-c2ccc(C(F)(F)F)cc2)cc1)c1ccc2oc(-c3ccccc3)cc2c1` [SZ16TA41], the half-inhibitory concentration (IC50) in test [4] was greater than 10 µM; in test [5], 3 ± 0.54 µM; in test [6] it was greater than 10 µM; in test [7], greater than 10 µM.
For `O=C(NS(=O)(=O)CCN(CSCc1ccccc1)Cc1ccc2c(c1)OCO2)c1ccc2oc(-c3ccccc3)cc2c1` [SZ28TA41], the IC50 in test [4] is greater than 10 µM; in test [5], 7.22 ± 0.28 µM; in test [6], 3.09 ± 0.66 µM; in test [7] it was greater than 10 µM.
